Measurements: patent US20170348269A1, “TREATMENT OF UREA CYCLE DISORDERS IN NEONATES AND INFANTS” (Horizon Therapeutics, LLC, priority 2016, published 2017)
Where “and” joins values, the source holds several entries; their conditions need not be identical. Equal entries are not always repeated.

Experiments:
[1] = HPN-100-005 pharmacokinetics of HPN-100 and NaPBA in pediatric UCD patients; type: in vivo, human; conditions: HPN-100-005 (N = 11)
Description: The pharmacokinetics of the short term studies can be summarized as follows. Mean exposure levels of HPN-100 metabolites PBA, PAA, and PAGN after doses of HPN-100 and NaPBA with meals (TID) in pediatric (29 days to 17 years of age) UCD patients in HPN-100-005 and HPN-100-012 studies are summarized below. The mean exposure to PBA, the parent metabolite, and mean exposure to PAGN, the terminal metabolite, show no systematic variation across age groups, while PAA exposure tended to decrease with increasing age, a finding consistent with those from population PK modeling which indicate that the rate of clearance/metabolism of PAA varies directly with body size. While systemic metabolite exposure, assessed as peak plasma concentration (Cmax) or AUC, is generally similar for HPN-100 and NaPBA, the minimum concentration (Cmin-ss) was higher—and/or percent-fluctuation less—for plasma PAGN, a finding consistent with slower gastrointestinal absorption of PBA when administered orally as HPN-100.

[2] = tested on: venous ammonia in pediatric patients with UCDs; assay: Study 6, uncontrolled open-label study in children under 2 years of age; type: in vivo, human
Procedure: Uncontrolled, open-label studies were conducted to assess monthly ammonia control and hyperammonemic crisis of RAVICTI® in pediatric patients with UCDs 2 months to less than 2 years of age (Study 4/4E, Study 5, and Study 6). Patients in Study 5 previously participated in Study 4/4E. A total of 17 pediatric patients with UCDs aged 2 months to less than 2 years participated in the studies.
A total of 10 pediatric patients with UCDs aged 2 months to less than 2 years participated in Study 6, of which 7 patients converted from sodium phenylbutyrate to RAVICTI®. The dosage of RAVICTI® was calculated to deliver the same amount of PBA as the sodium phenylbutyrate dosage the patients were taking when they entered the trial. Two patients were treatment naïve and received RAVICTI® dosage of 7.5 mL/m^2/day and 9.4 mL/m^2/day, respectively. One additional patient was gradually discontinued from intravenous sodium benzoate and sodium phenylacetate while RAVICTI® was initiated. The dosage of RAVICTI® after transition was 8.5 mL/m^2/day.
In Study 6, there were 9, 7 and 3 pediatric patients who completed 1, 3 and 6 months, respectively (mean and median exposure of 4 and 5 months, respectively).
Patients received a mean RAVICTI® dose of 8 mL/m^2/day (8.8 g/m^2/day), with doses ranging from 4.8 to 11.5 mL/m^2/day (5.3 to 12.6 g/m^2/day). Patients were dosed three times a day (n=6), four times a day (n=2), or five or more times a day (n=2).
The primary efficacy endpoint was successful transition to RAVICTI® within a period of 4 days followed by 3 days of observation for a total of 7 days, where successful transition was defined as no signs and symptoms of hyperammonemia and a venous ammonia value less than 100 micromol/L. Venous ammonia levels were monitored for up to 4 days during transition and on day 7. Nine patients successfully transitioned as defined by the primary endpoint. One additional patient developed hyperammonemia on day 3 of dosing and experienced surgical complications (bowel perforation and peritonitis) following jejunal tube placement on day 4. This patient developed hyperammonemic crisis on day 6, and subsequently died of sepsis from peritonitis unrelated to drug. Although two patients had day 7 ammonia values of 150 micromol/L and 111 micromol/L respectively, neither had associated signs and symptoms of hyperammonemia.
During the extension phase, venous ammonia levels were monitored monthly. Ammonia values across different laboratories were normalized (transformed) to a common normal pediatric range of 28 to 57 micromol/L for comparability. The mean normalized venous ammonia values in pediatric patients at month 1, 2, 3, 4, 5 and 6 were 67, 53, 78, 99, 56 and 61 micromol/L during treatment with RAVICTI®, respectively. Three patients reported a total of 7 hyperammonemic crises defined as having signs and symptoms consistent with hyperammonemia (such as frequent vomiting, nausea, headache, lethargy, irritability, combativeness, and/or somnolence) associated with high venous ammonia levels and requiring medical intervention. Hyperammonemic crises were precipitated by vomiting, upper respiratory tract infection, gastroenteritis, decreased caloric intake or had no identified precipitating event (3 events). There were three additional patients who had one venous ammonia level that exceeded 100 micromol/L which was not associated with a hyperammonemic crisis.

[3] = target: T1, bile salt-stimulated lipase (Homo sapiens, UniProt P19835); conditions: cited from earlier work
T1 sequence (P19835 21-753): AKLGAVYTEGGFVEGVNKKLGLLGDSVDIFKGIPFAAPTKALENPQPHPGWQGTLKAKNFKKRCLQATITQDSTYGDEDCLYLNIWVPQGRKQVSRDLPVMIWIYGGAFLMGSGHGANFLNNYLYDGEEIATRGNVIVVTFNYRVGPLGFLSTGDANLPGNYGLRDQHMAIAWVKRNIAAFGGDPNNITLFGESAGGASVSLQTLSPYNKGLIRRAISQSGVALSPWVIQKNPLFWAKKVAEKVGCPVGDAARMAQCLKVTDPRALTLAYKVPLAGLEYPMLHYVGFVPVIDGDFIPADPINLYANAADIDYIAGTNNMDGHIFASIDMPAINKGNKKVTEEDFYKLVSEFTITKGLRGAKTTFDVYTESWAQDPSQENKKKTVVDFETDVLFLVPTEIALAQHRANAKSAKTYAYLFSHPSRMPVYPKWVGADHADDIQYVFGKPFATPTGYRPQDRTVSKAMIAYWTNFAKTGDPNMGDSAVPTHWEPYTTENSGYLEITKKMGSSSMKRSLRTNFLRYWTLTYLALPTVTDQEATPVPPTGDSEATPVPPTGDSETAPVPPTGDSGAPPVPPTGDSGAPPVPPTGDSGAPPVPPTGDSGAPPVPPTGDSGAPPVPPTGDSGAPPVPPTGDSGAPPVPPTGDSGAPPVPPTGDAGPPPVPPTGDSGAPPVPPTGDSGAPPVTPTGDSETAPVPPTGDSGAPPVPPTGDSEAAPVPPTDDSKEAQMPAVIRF

[4] = pediatric UCD patients, TID with meals, arithmetic mean
[5] = Study 6 extension phase, normalized to 28 to 57 micromol/L

O=C(CCCc1ccccc1)OCC(COC(=O)CCCc1ccccc1)OC(=O)CCCc1ccccc1 [HPN-100, benzenebutanoic acid, 1′,1″-(1,2,3-propanetriyl) ester]
Plasma PAA CLss/F [1, 4]: 15082 mL/min
Plasma PBA CLss/F [1, 4]: 20545 mL/min
Plasma PAGN CLss/F ([1]; pediatric UCD patients, TID with meals, arithmetic mean (CV %)): 14237 mL/min
U-PAGN Ae0-12 ([1]; urinary PAGN excreted 0-12 h, arithmetic mean): 5611719 µg
U-PAGN Ae12-24 ([1]; urinary PAGN excreted 12-24 h, arithmetic mean): 6889318 µg
U-PAGN Ae ([1]; urinary PAGN excreted, arithmetic mean): 12501037 µg
additional patients with one venous ammonia level exceeding 100 micromol/L not associated with a hyperammonemic crisis ([2]; Study 6): three
patients successfully transitioned (no signs and symptoms of hyperammonemia and venous ammonia less than 100 micromol/L) ([2]; Study 6, 10 patients 2 months to <2 years, 7 days): Nine
day 7 ammonia values of two individual patients ([2]; Study 6, no associated signs and symptoms of hyperammonemia, listed as RAVICTI®): 150 µmol/L and 111 µmol/L
total hyperammonemic crises ([2]; Study 6, reported by three patients): 7
mean normalized venous ammonia, month 1 [2, 5]: 67 µmol/L
mean normalized venous ammonia, month 2 [2, 5]: 53 µmol/L
mean normalized venous ammonia, month 3 [2, 5]: 78 µmol/L
mean normalized venous ammonia, month 4 [2, 5]: 99 µmol/L
mean normalized venous ammonia, month 5 [2, 5]: 56 µmol/L
mean normalized venous ammonia, month 6 [2, 5]: 61 µmol/L
hydrolysis in vitro by bile salt-stimulated lipase [3]: hydrolyze
